The target in one assay is T1, Human Myeloperoxidase (Homo sapiens, UniProt P05164).
T1 construct: purchased Lee Biosciences 426-10
T1 sequence (P05164 49-745): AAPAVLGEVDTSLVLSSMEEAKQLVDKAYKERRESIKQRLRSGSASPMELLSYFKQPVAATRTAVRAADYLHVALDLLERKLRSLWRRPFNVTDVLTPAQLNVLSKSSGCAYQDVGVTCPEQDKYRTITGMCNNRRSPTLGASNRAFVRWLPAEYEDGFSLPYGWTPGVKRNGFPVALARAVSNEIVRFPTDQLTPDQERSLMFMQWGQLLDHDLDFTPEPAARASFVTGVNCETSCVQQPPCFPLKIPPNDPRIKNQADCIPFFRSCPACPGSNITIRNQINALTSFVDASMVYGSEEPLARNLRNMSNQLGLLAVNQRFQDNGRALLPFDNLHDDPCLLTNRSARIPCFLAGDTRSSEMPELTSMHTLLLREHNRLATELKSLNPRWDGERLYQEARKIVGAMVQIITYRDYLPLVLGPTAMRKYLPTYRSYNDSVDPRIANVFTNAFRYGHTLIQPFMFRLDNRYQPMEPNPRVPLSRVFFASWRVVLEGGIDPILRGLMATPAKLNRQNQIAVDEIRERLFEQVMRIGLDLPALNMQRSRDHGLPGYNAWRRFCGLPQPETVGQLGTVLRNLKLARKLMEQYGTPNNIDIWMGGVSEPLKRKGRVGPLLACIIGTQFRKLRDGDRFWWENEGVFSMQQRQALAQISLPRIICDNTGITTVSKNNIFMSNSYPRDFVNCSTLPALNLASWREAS
The assay is described as follows: X-ray co-crystal growth by soaking MPO crystals with inhibitor. The note with it: crystals soaked with 50 mM inhibitor. On the procedure: Human Myeloperoxidase and co-crystals of MPO were crystallized and analyzed using methods similar to those described by Davey and Fenna. Briefly, hanging drops of 25 mg/mL MPO, 25 mM sodium acetate pH 5.0, 50 mM NaCl, 50 mM ammonium sulfate, 2 mM calcium chloride, and 3-10 % polyethylene glycol 8000 were set up at 21 °C over reservoir solutions containing 300 mM sodium chloride. Crystals of the space group P21 and having two MPO subunits per asymmetric unit grew with the aid of micro-seeding as very thin plates having a brownish orange tinge. Crystals were soaked with inhibitor compounds at a concentration of 50 mM, in a stabilizing buffer containing 18 % polyethylene glycol 8000, 56 mM ammonium sulfate, 2.2 mM calcium acetate, and 56 mM HEPES pH 7.0. Co-crystals were cryo-protected in a stabilizing buffer containing 22.2 % methylpentanediol prior to flash cooling in liquid nitrogen.
Diffraction data were collected at 100 K using Synchrotron beam line 31ID at the Advanced Photon Source (Argonne National Laboratory) and were integrated using MOSFLM v.6.2.6 [18]. […] Inhibitor binding to the MPO heme group was indicated by appropriately shaped peaks in the Fo–Fc electron density maps. The inhibitor was included in the model, and iterative cycles of manual model building with COOT [20] and restrained refinement with REFMAC v5.2.0019 [21] were used to complete the overall structure. Figures of the crystal structure were generated using PYMOL (www.pymol.org). […] The higher B-factors for the inhibitor molecules could be attributed to inhibitor occupancies of less than 1.0 or to higher degrees of thermal motion associated with the inhibitors. Lower than expected electron density peak heights were also observed for the Cl atom in the inhibitors, which could be due to the radiation damage to this X-Ray sensitive group.

For the next assay, the target named is T2, hMPO (Homo sapiens, UniProt P05164).
T2 construct: purchased Biodesign A31804H
T2 sequence (P05164 49-745): T1 sequence (P05164 49-745)
The assay is described as follows: Reversible binding assay (filtration and ESR after washing). The note with it: bound complex washed with buffer, then ESR at 4 K. On the procedure: We performed the following two assays for independently confirming the reversibility of binding. In the filtration method, hMPO stock (1.5 mg/ml) is diluted to 5 μg/ml with 20 mM phosphate buffer pH 7.4, 10 % glycerol (no gelatin). 120 μl of this solution is mixed with an equal volume of the compounds at a concentration of 30 μM (final concentration […]), followed by mixing in the plate and incubation for 15 min. at room temperature. 120 μl aliquot of this solution is transferred into separate YM30 Micron filter units and centrifuged 6 min at 9000 rpm, followed by the addition of 300 μl of the buffer and further centrifugation for 12 min. at 9000 rpm. Wash and centrifuge cycles are repeated 2 more times with 300 μl buffer, each followed by 12 min. centrifugation steps. The protein left on the membrane is mixed with the PB buffer to a final volume of 120 μl and subjected to Alpha screen method as described before to probe the nitration of Apo A1 peptide substrate which is taken as a confirmation of the restoration of the catalytic activity of the protein.
In the ESR protocol, the methodology of Hori et al. was applied with some modifications.The protocol followed is similar to the binding assay except that a higher concentration of hMPO (9.2 μM final) is used. This is necessary as multiple washings followed by dilutions lead to considerable loss of the enzyme due to its retention on the membrane. After 5 min of incubation in the eppendorf at room temperature, the contents were transferred to an Amicon Ultra-4 tube (5 ml capacity) and filled with 4 ml of 0.1 M sodium acetate buffer (containing 50 mM NaCl) pH 6.0. Using spin conditions of 4000×g in a swinging bucket rotor at 20 °C, the samples are washed repeatedly (2×) followed with a final wash containing 1 ml of the sodium acetate buffer (chloride free) + 25 % n-propanol and then concentrated. The concentrated solution ca. 300 μl is transferred to ESR quartz tubes and measured at 4 K. A higher concentration of MPO in these reversible binding assays enabled a good ESR signal over noise from the washed (3X) sample.

Consider `O=C(O)c1nn(-c2ccccc2)cc1O` [LSN17948], for which the “X ray Cocrystal result” value at Human Myeloperoxidase is given as “Yes”. Also, the “reversibility of the binding” value on hMPO is “Reversible in its action”.
Consider `O=C(O)c1n[nH]c(-c2ccccc2)c1O` [LSN87637], for which the “X ray Cocrystal result” value on Human Myeloperoxidase is “Yes”. The “reversibility of the binding” value at hMPO is recorded as “Reversible in its action”.
In the case of `O=C(O)c1nn(-c2cccc3ccccc23)cc1O` [LSN2944556], at Human Myeloperoxidase, the “X ray Cocrystal result” value is “Yes”. For the same compound, the “reversibility of the binding” value on hMPO is on record as “Reversible in its action”.

The values above are taken from publication PMC4515242, “ESR and X-ray Structure Investigations on the Binding and Mechanism of Inhibition of the Native State of Myeloperoxidase with Low Molecular Weight Fragments” (Applied Magnetic Resonance, 2015).
